From paper PMC12143591, “Unlocking the serine mischarging paradox and inhibiting lactyltransferase activity of AlaRS by a single-point mutation” (Nucleic Acids Research, 2025)
Read-outs that look alike come from different tables or passages of the source.

Tests used:
Experiment in all cases: PPi release assay (pyrophosphatase, BIOMOL Green, […] nm)
Assay type in all cases: biochemical
AlaRS (AlaRS^WT) [1] = molecular target: T1, AlaRS (AlaRS^WT) (Methylomonas sp. DH-1, UniProt Z9JP01Z3Z1, L219M, form not given); settings: 8 uM tRNA-Ala, 200 uM ATP, 40 mM MgCl2, 1 mM DTT, pH 7.5, 37 °C
T1 construct: full-length, pET-28b(+) (BamHI/NotI), Ni-NTA purified from E. coli Rosetta-gami2(DE3)pLysS; tag removal not mentioned

AlaRS (AlaRS^WT) [2] = molecular target: T2, AlaRS (AlaRS^WT) (Methylomonas sp. DH-1, UniProt Z9JP01Z3Z1, V207A/L222M, form not given); settings: 8 uM tRNA-Ala, 200 uM ATP, 40 mM MgCl2, 1 mM DTT, pH 7.5, 37 °C; read-out: Alanine / K m
T2 construct: full-length, pET-28b(+) (BamHI/NotI), Ni-NTA purified from E. coli Rosetta-gami2(DE3)pLysS; tag removal not mentioned

AlaRS429 = molecular target: T3, AlaRS429 (Methylomonas sp. DH-1, UniProt Z9JP01Z3Z1, L219M, form not given); settings: 8 uM tRNA-Ala, 200 uM ATP, 40 mM MgCl2, 1 mM DTT, pH 7.5, 37 °C; read-out: Alanine / K m
T3 construct: residues 1-429 (aminoacylation domain, no editing domain), non-cleavable C-terminal His6 tag, synthetic gene in pET28b(+), E. coli BL21(DE3)

AlaRS (AlaRS^WT) [3] = molecular target: T4, AlaRS (AlaRS^WT) (Methylomonas sp. DH-1, UniProt Z9JP01Z3Z1, L219A, form not given); settings: 8 uM tRNA-Ala, 200 uM ATP, 40 mM MgCl2, 1 mM DTT, pH 7.5, 37 °C; read-out: Alanine / K m
T4 construct: full-length, pET-28b(+) (BamHI/NotI), Ni-NTA purified from E. coli Rosetta-gami2(DE3)pLysS; tag removal not mentioned

AlaRS (AlaRS^WT) [4] = molecular target: T5, AlaRS (AlaRS^WT) (Methylomonas sp. DH-1, UniProt Z9JP01Z3Z1, L219F, form not given); settings: 8 uM tRNA-Ala, 200 uM ATP, 40 mM MgCl2, 1 mM DTT, pH 7.5, 37 °C; read-out: Alanine / K m
T5 construct: full-length, pET-28b(+) (BamHI/NotI), Ni-NTA purified from E. coli Rosetta-gami2(DE3)pLysS; tag removal not mentioned

Structure (SMILES)	Km (AlaRS (AlaRS^WT) [1]; read-out: Glycine / K m)	Km (AlaRS (AlaRS^WT) [2])	Km (AlaRS (AlaRS^WT) [1]; read-out: Alanine / K m)	Km (AlaRS429)	Km (AlaRS (AlaRS^WT) [3])	Km (AlaRS (AlaRS^WT) [4])
NCC(=O)O [Gly]	7910 ± 3280 µM	–	–	–	–	–
C[C@H](N)C(=O)O [Ala]	–	145 ± 39 µM	9 ± 1 µM	3 ± 1 µM	9 ± 6 µM	7 ± 3 µM
